Assay results: US11026972B2, “Methods for generating macrophages with enhanced cancer phagocytosis” (Georgia State University Research Foundation, Inc., priority 2016, dated 2021)

B1: IL-17: recombinant murine cytokine interleukin IL-17 (also known as IL-17A), PeproTech (protein, UniProt Q62386 26-158, looked up)
Interleukin-17A: AAIIPQSSACPNTEAKDFLQNVKVNLKVFNSLGAKVSSRRPSDYLNRSTSPWTLHRNEDPDRYPSVIWEAQCRHQRCVNAEGKLDHHMNSVLIQQEILVLKREPESCPFTFRVEKMLVGVGCTCVASIVRQAA

System: splenic macrophages, PEMs and BMDMs
Assay: Ex vivo macrophage phagocytosis toward RBCs and other self-cells after activation
Type: cell-based, mouse
Conditions: for conversion to potent phagocytes toward self: PEMs and BMDMs from WT and mutant mice; for phagocytosis toward CD47^− RBCs of culture-retarded WT spleen macrophages: after 2 days of culturing; for phagocytosis toward RBCs: splenic macrophages from SIRPα^−/− or CD47^−/− mice
How it was run: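 Mouse splenic or peritoneal macrophages (2 h adherent selection) or BMDMs (M-CSF ~10 ng/ml, 5-6 days) were co-incubated 30 min at 37 °C with CFSE-labelled RBCs (1:5-10) or other cells (1:1-2). Uptake was scored by fluorescence microscopy and/or FACS with anti-F4/80 or anti-CD11b macrophage labelling.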

Row | Molecule | conversion to potent phagocytes toward self | phagocytosis of other cell types (activated macrophages, CD47-SIRPα-controllable manner) | phagocytosis toward CD47^− RBCs of culture-retarded WT spleen macrophages | phagocytosis toward RBCs
1 | lipopolysaccharide [LPS] | converted all PEMs and BMDMs | capable of phagocytizing murine splenocytes, B16 melanoma cells, and EL4 lymphoblasts | dramatically rekindled | rapidly induced their phagocytosis toward RBCs
2 | B1 | converted all PEMs and BMDMs | – | dramatically rekindled | rapidly induced their phagocytosis toward RBCs
